tested on: P. berghei ANKA strain; assay: treatment: 3x3 mg/kg and 3x1 mg/kg po divided doses in infected mice; type: in vivo, Plasmodium berghei; details: 3 × 1 mg/kg days 1, 2, 3 post-infection
Description: Moro NMRI male mice (Fü Albino specific pathogen free) weighing 18±2 g were infected intravenously (i.v.) with 2×10^7 P. berghei ANKA strain-infected erythrocytes from donor mice on day 0 of the experiment. From donor mice with circa 30% parasitemia, heparinized blood was taken and diluted in physiological saline to 10^8 parasitized erythrocytes per ml. An aliquot (0.2 ml) of this suspension was injected i.v. into experimental and control groups of mice. In untreated control mice, parasitemia rose regularly to 40 to 50% by day 3 post-infection and 70 to 80% by day 4 post-infection. The mice died between days 5 and 7 post-infection. Throughout the experiments, mice were kept in groups of three or five animals in Makrolon type II cages in an air-conditioned animal room at 22 to 23° C. A diet with p-aminobenzoic acid (PABA) of 45 mg (NAFAG FUTTER© food N^o 9009 PAB-45) per kg of body weight, and tap water is available ad libitum.
OZ compounds were prepared at an appropriate concentration, either as a solution or a suspension containing SSV (0.5% w/v CMC, 0.5% v/v benzyl alcohol, 0.4% v/v Tween 80, and 0.9% w/v sodium chloride in water). They were administered per os (p.o.) in a total volume of 0.01 ml per gram of mouse. The activity of the compound was determined by a variety of methods outlined in subsequent sections. Survival time was also recorded, and survival to day 30 post-infection was considered to be a cure.
The second experiment consists of administration of divided 3×3 mg/kg and 3×1 mg/kg po doses administered on days 1, 2, and 3 post-infection. On day 4 post-infection, blood smears of all animals were prepared and stained with Giemsa. Parasitemia was determined microscopically, and the difference between the mean value of the control group (taken as 100%) and those of the experimental groups was calculated and expressed as percent reduction. Compounds were administered orally in the SSV vehicle.

Row | Structure (SMILES) | Survival (days) p.o. SSV [days]
1 | O=c1ccn(CC2CCC3(CC2)OOC2(O3)C3CC4CC(C3)CC2C4)cc1 (stereo not drawn) [compound 302] | 13.4
2 | CCOC(=O)CNCC1CCC2(CC1)OOC1(O2)C2CC3CC(C2)CC1C3.CS(=O)(=O)O (stereo not drawn) [compound 290] | 6.8
3 | NC1(C(=O)NCC2CCC3(CC2)OOC2(O3)C3CC4CC(C3)CC2C4)CCCC1 (stereo not drawn) [compound 317] | 11.4
4 | NS(=O)(=O)c1ccc(NCC2CCC3(CC2)OOC2(O3)C3CC4CC(C3)CC2C4)cc1 (stereo not drawn) [compound 298] | 11
5 | CS(=O)(=O)O.NC(=O)CCNCC1CCC2(CC1)OOC1(O2)C2CC3CC(C2)CC1C3 (stereo not drawn) [compound 319] | 13

same assay, conditions: 3 × 1 mg/kg days 1, 2, 3 post-infection, percent reduction of parasitemia day 4

Row | Structure (SMILES) | Activity (%) p.o. SSV [%]
6 | O=c1ccn(CC2CCC3(CC2)OOC2(O3)C3CC4CC(C3)CC2C4)cc1 (stereo not drawn) [compound 302] | 87
7 | CCOC(=O)CNCC1CCC2(CC1)OOC1(O2)C2CC3CC(C2)CC1C3.CS(=O)(=O)O (stereo not drawn) [compound 290] | 14
8 | NC1(C(=O)NCC2CCC3(CC2)OOC2(O3)C3CC4CC(C3)CC2C4)CCCC1 (stereo not drawn) [compound 317] | 73
9 | NS(=O)(=O)c1ccc(NCC2CCC3(CC2)OOC2(O3)C3CC4CC(C3)CC2C4)cc1 (stereo not drawn) [compound 298] | 93
10 | CS(=O)(=O)O.NC(=O)CCNCC1CCC2(CC1)OOC1(O2)C2CC3CC(C2)CC1C3 (stereo not drawn) [compound 319] | 92

same assay, conditions: 3×1 mg/kg po on days 1, 2, 3 post-infection, SSV

Row | Structure (SMILES) | activity (percent reduction of parasitemia)
11 | NCCC(=O)NC[C@H]1CC[C@]2(CC1)OO[C@]1(O2)C2CC3CC(C2)CC1C3 [OZ336] | greater than 99%

same assay, conditions: 3 × 3 mg/kg days 1, 2, 3 post-infection

Row | Structure (SMILES) | Survival (days) p.o. SSV [days]
12 | O=c1ccn(CC2CCC3(CC2)OOC2(O3)C3CC4CC(C3)CC2C4)cc1 (stereo not drawn) [compound 302] | 13.4
13 | CCOC(=O)CNCC1CCC2(CC1)OOC1(O2)C2CC3CC(C2)CC1C3.CS(=O)(=O)O (stereo not drawn) [compound 290] | 10.6
14 | NC1(C(=O)NCC2CCC3(CC2)OOC2(O3)C3CC4CC(C3)CC2C4)CCCC1 (stereo not drawn) [compound 317] | 16.8
15 | NS(=O)(=O)c1ccc(NCC2CCC3(CC2)OOC2(O3)C3CC4CC(C3)CC2C4)cc1 (stereo not drawn) [compound 298] | 16.4
16 | CS(=O)(=O)O.NC(=O)CCNCC1CCC2(CC1)OOC1(O2)C2CC3CC(C2)CC1C3 (stereo not drawn) [compound 319] | 11.2

same assay, conditions: 3 × 3 mg/kg days 1, 2, 3 post-infection, percent reduction of parasitemia day 4

Row | Structure (SMILES) | Activity (%) p.o. SSV [%]
17 | O=c1ccn(CC2CCC3(CC2)OOC2(O3)C3CC4CC(C3)CC2C4)cc1 (stereo not drawn) [compound 302] | 99.51
18 | CCOC(=O)CNCC1CCC2(CC1)OOC1(O2)C2CC3CC(C2)CC1C3.CS(=O)(=O)O (stereo not drawn) [compound 290] | 93
19 | NC1(C(=O)NCC2CCC3(CC2)OOC2(O3)C3CC4CC(C3)CC2C4)CCCC1 (stereo not drawn) [compound 317] | 100
20 | NS(=O)(=O)c1ccc(NCC2CCC3(CC2)OOC2(O3)C3CC4CC(C3)CC2C4)cc1 (stereo not drawn) [compound 298] | 99.99
21 | CS(=O)(=O)O.NC(=O)CCNCC1CCC2(CC1)OOC1(O2)C2CC3CC(C2)CC1C3 (stereo not drawn) [compound 319] | 99.97

same assay, conditions: 3×3 mg/kg po on days 1, 2, 3 post-infection, SSV

Row | Structure (SMILES) | infected mice cured
22 | c1cc(OC[C@H]2CC[C@]3(CC2)OO[C@]2(O3)C3CC4CC(C3)CC2C4)ccn1 [OZ301] | ⅕
23 | NC1CCN(C(=O)C[C@H]2CC[C@]3(CC2)OO[C@]2(O3)C3CC4CC(C3)CC2C4)CC1 [OZ339] | ⅗

tested on: ANKA strain of Plasmodium berghei; assay: single dose ED50/ED90/ED99 determinations in infected mice; type: in vivo; details: single dose po in SSV, mice, percent reduction in parasitemia on day three post-infection
Description: In the single dose ED50/ED90/ED99 determinations, Moro SPF or NMRI mice (group of three) infected with the ANKA strain of Plasmodium berghei were treated on day one post-infection. […] The SSV consists of 0.5% w/v CMC, 0.5% v/v benzyl alcohol, 0.4% v/v Tween 80, and 0.9% w/v sodium chloride in water. Antimalarial activity was measured by percent reduction in parasitemia on day three post-infection. The ED50/ED90 values were calculated by nonlinear fitting.

Row | Structure (SMILES) | ED50 [mg/kg] | ED90 [mg/kg] | ED99 [mg/kg]
24 | C[C@H]1[C@@H](OCc2ccc(C(=O)O)cc2)O[C@@H]2O[C@@]3(C)CC[C@H]4[C@H](C)CC[C@@H]1[C@@]24OO3 [Artelinate] | 4.8 | 10 | 18
25 | NC[C@H]1CC[C@]2(CC1)OOC1(O2)C2CC3CC(C2)CC1C3 (stereo partly drawn) [OZ181] | 0.63 | 1.8 | 4.0

tested on: ANKA strain of P. berghei; assay: single dose STI in vivo screen in infected mice; design: species or system Plasmodium berghei; details: percent reduction in parasitemia day 3 post-infection; single 3 mg/kg po in SSV
Procedure, shortened: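 Groups of 3-5 Moro SPF or NMRI mice infected with the ANKA strain of P. berghei received a single dose of trioxolane on day one post-infection. The compound was given in 3% ethanol and 7% Tween 80 or in SSV (0.5% w/v CMC, 0.5% v/v benzyl alcohol, 0.4% v/v Tween 80, 0.9% w/v sodium chloride in water). Antimalarial activity was scored as percent reduction in parasitemia on day three and as survival time versus untreated controls. Survival to day 30 counted as cure.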

Row | Structure (SMILES) | Activity (%) 3 mg/kg SSV po [%]
26 | NCCC(=O)NC[C@H]1CC[C@]2(CC1)OO[C@]1(O2)C2CC3CC(C2)CC1C3 [OZ336] | 98
27 | c1cc(OC[C@H]2CC[C@]3(CC2)OO[C@]2(O3)C3CC4CC(C3)CC2C4)ccn1 [OZ301] | 97
28 | NC1CCN(C(=O)C[C@H]2CC[C@]3(CC2)OO[C@]2(O3)C3CC4CC(C3)CC2C4)CC1 [OZ339] | 99.65

same assay, conditions: percent reduction in parasitemia day 3 post-infection; single 10 mg/kg po in 3% ethanol and 7% Tween 80; mice; 10 mg/kg

Row | Structure (SMILES) | Activity (%) po [%]
29 | NC[C@H]1CC[C@]2(CC1)OOC1(O2)C2CC3CC(C2)CC1C3 (stereo partly drawn) [OZ181] | 99.98

same assay, conditions: percent reduction in parasitemia day 3 post-infection; single 10 mg/kg po in SSV

Row | Structure (SMILES) | Activity (%) 10 mg/kg SSV po [%]
30 | NCCC(=O)NC[C@H]1CC[C@]2(CC1)OO[C@]1(O2)C2CC3CC(C2)CC1C3 [OZ336] | 99.93
31 | c1cc(OC[C@H]2CC[C@]3(CC2)OO[C@]2(O3)C3CC4CC(C3)CC2C4)ccn1 [OZ301] | 100
32 | NC1CCN(C(=O)C[C@H]2CC[C@]3(CC2)OO[C@]2(O3)C3CC4CC(C3)CC2C4)CC1 [OZ339] | 99.95

same assay, conditions: percent reduction in parasitemia day 3 post-infection; single 10 mg/kg sc in 3% ethanol and 7% Tween 80; mice

Row | Structure (SMILES) | Activity (%) sc [%]
33 | NC[C@H]1CC[C@]2(CC1)OOC1(O2)C2CC3CC(C2)CC1C3 (stereo partly drawn) [OZ181] | 100

same assay, conditions: percent reduction in parasitemia day 3 post-infection; single po dose in standard suspending vehicle (SSV); mice

Row | Structure (SMILES) | Activity (%) SSVpo [%]
34 | NC[C@H]1CC[C@]2(CC1)OOC1(O2)C2CC3CC(C2)CC1C3 (stereo partly drawn) [OZ181] | 99.91

same assay, conditions: single 10 mg/kg po in 3% ethanol and 7% Tween 80; untreated control 5.6 ± 0.3; 10 mg/kg

Row | Structure (SMILES) | Survival (days) po [days]
35 | NC[C@H]1CC[C@]2(CC1)OOC1(O2)C2CC3CC(C2)CC1C3 (stereo partly drawn) [OZ181] | 9.0

same assay, conditions: single 10 mg/kg po in SSV

Row | Structure (SMILES) | Survival (days) 10 mg/kg SSV po [days]
36 | NCCC(=O)NC[C@H]1CC[C@]2(CC1)OO[C@]1(O2)C2CC3CC(C2)CC1C3 [OZ336] | 9.2

same assay, conditions: single 10 mg/kg sc in 3% ethanol and 7% Tween 80; untreated control 5.6 ± 0.3; 10 mg/kg

Row | Structure (SMILES) | Survival (days) sc [days]
37 | NC[C@H]1CC[C@]2(CC1)OOC1(O2)C2CC3CC(C2)CC1C3 (stereo partly drawn) [OZ181] | 11.0

same assay, conditions: single po dose in SSV; untreated control 5.6 ± 0.3

Row | Structure (SMILES) | Survival (days) SSVpo [days]
38 | NC[C@H]1CC[C@]2(CC1)OOC1(O2)C2CC3CC(C2)CC1C3 (stereo partly drawn) [OZ181] | 10.0
